Like-named read-outs stand apart in the source and are kept apart here.
Biological target: TBK1 (Homo sapiens (Human), UniProt Q9UHD2)
Test: TBK1 low ATP kinase assay (in vitro assay 1)
Type: biochemical
[1] = in vitro assay 1, read-out: TBK1 low ATP kinase assay IC50
[2] = TBK1 low ATP kinase assay IC50, in vitro assay 1

Chain of TBK1 (Q9UHD2 whole entry): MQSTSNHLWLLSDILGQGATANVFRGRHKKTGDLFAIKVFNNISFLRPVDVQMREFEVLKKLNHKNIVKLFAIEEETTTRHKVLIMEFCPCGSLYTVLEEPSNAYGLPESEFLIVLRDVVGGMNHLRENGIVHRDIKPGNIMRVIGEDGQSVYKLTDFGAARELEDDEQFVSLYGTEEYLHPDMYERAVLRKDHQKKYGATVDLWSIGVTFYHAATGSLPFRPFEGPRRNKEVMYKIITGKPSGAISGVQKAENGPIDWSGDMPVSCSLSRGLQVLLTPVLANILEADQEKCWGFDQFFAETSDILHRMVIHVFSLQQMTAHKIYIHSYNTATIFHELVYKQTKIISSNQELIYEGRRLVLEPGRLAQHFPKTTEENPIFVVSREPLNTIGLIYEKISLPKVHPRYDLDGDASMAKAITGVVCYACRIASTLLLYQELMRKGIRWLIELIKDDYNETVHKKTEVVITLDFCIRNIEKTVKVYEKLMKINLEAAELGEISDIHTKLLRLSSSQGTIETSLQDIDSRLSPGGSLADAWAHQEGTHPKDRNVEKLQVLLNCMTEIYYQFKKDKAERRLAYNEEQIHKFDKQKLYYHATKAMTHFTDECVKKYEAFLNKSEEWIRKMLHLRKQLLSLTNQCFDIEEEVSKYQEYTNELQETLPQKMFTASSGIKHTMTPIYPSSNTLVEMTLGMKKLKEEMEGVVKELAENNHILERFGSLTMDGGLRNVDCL

| SMILES | IC50 [1] [nM] | IC50 [2] [nM] |
| --- | --- | --- |
| Cc1cc(-c2ccc3nc(Nc4cc(C(C)N5CCN(C(=O)CC(F)(F)F)CC5)ccn4)[nH]c3c2Cl)ncn1 (single isomer, unassigned) [Example 98.02, 1-{4-[(1R or 1S)-1-(2-{[7-chloro-6-(6-methylpyrimidin-4-yl)-1H-benzimidazol-2-yl]amino}pyridin-4-yl)ethyl]piperazin-1-yl}-3,3,3-trifluoropropan-1-one] | 44 |  |
| COCCOCCS(=O)(=O)N1CCN(Cc2ccnc(Nc3nc4ccc(-c5ncncc5OC)cc4[nH]3)c2)CC1 [Example 35.01.11, N-{4-[(4-{[2-(2-methoxyethoxy)ethyl]sulfonyl}piperazin-1-yl)methyl]pyridin-2-yl}-6-(5-methoxypyrimidin-4-yl)-1H-benzimidazol-2-amine] | 28.6 |  |
| CC(C)Oc1cncnc1-c1ccc2nc(Nc3cc(C(C)N4CCN(C(=O)CC(F)(F)F)CC4)ccn3)[nH]c2c1 (single isomer, unassigned) [Example 36.02, 3,3,3-trifluoro-1-(4-{(1R or 1S)-1-[2-({6-[5-(propan-2-yloxy)pyrimidin-4-yl]-1H-benzimidazol-2-yl}amino)pyridin-4-yl]ethyl}piperazin-1-yl)propan-1-one] |  | 1.96 |
| CC(c1ccnc(Nc2nc3ccc(-c4cc(N5CC(C(F)(F)F)C5)ncn4)cc3[nH]2)c1)N1CCN(C(=O)OC(C)(C)C)CC1 (single isomer, unassigned) [Example 164.01, tert-butyl 4-[(1R or 1S)-1-{2-[(6-{6-[3-(trifluoromethyl)azetidin-1-yl]pyrimidin-4-yl}-1H-benzimidazol-2-yl)amino]pyridin-4-yl}ethyl]piperazine-1-carboxylate] | 5.48 |  |
| Cc1nccc(-c2ccc3nc(Nc4cc(C(C)N5CCN(C(=O)CC6CC6)CC5)ccn4)[nH]c3c2)n1 (racemic) [Example 24.04.04, (rac)-2-cyclopropyl-1-{4-[1-(2-{[6-(2-methylpyrimidin-4-yl)-1H-benzimidazol-2-yl]amino}pyridin-4-yl)ethyl]piperazin-1-yl}ethanone] | 14.4 |  |
| CC(C)N(C)c1cc(-c2ccc3nc(Nc4cc(CN5CCN(C(=O)OC(C)(C)C)CC5)ccn4)[nH]c3c2)ncn1 [Example 153.01, tert-butyl 4-({2-[(6-{6-[methyl(propan-2-yl)amino]pyrimidin-4-yl}-1H-benzimidazol-2-yl)amino]pyridin-4-yl}methyl)piperazine-1-carboxylate] | 14 |  |
| COc1cncnc1-c1ccc2nc(Nc3cc(C(C)N4CCN(C(=O)C5CCC5)CC4)ccn3)[nH]c2c1 (single isomer, unassigned) [Example 35.03.04.B, cyclobutyl{4-[(1R or 1S)-1-(2-{[6-(5-methoxypyrimidin-4-yl)-1H-benzimidazol-2-yl]amino}pyridin-4-yl)ethyl]piperazin-1-yl}methanone] | 34.5 |  |
| CN(C)c1cc(-c2ccc3nc(Nc4cc(CN5CCN(C(=O)CC(F)(F)F)CC5)ccn4)[nH]c3c2)ncn1 [Example 143.02, 1-(4-{[2-({6-[6-(dimethylamino)pyrimidin-4-yl]-1H-benzimidazol-2-yl}amino)pyridin-4-yl]methyl}piperazin-1-yl)-3,3,3-trifluoropropan-1-one] | 8.2 |  |
| COc1cncnc1-c1ccc2nc(Nc3cc(C(C)N4CCN(C(=O)CC(F)(F)F)CC4)ccn3)[nH]c2c1 (single isomer, unassigned) [Example 35.03.01.A, 3,3,3-trifluoro-1-{4-[(1R or 1S)-1-(2-{[6-(5-methoxypyrimidin-4-yl)-1H-benzimidazol-2-yl]amino}pyridin-4-yl)ethyl]piperazin-1-yl}propan-1-one] | 3.85 |  |
| Cc1noc(-c2ccc3nc(Nc4cc(CN5CCN(c6ccc(F)c(F)c6)CC5)ccn4)[nH]c3c2)n1 [Example 101.21, N-(4-{[4-(3,4-difluorophenyl)piperazin-1-yl]methyl}pyridin-2-yl)-6-(3-methyl-1,2,4-oxadiazol-5-yl)-1H-benzimidazol-2-amine] | > 57000 |  |
| CC(c1ccnc(Nc2nc3ccc(-c4cc(N(C)C)ncn4)cc3[nH]2)c1)N1CCN(C(=O)CC(F)(F)F)CC1 (single isomer, unassigned) [Example 100.01, 1-(4-{(1R or 1S)-1-[2-({6-[6-(dimethylamino)pyrimidin-4-yl]-1H-benzimidazol-2-yl}amino)pyridin-4-yl]ethyl}piperazin-1-yl)-3,3,3-trifluoropropan-1-one] |  | 1.5 |
| CN(C)c1ncnc(-c2ccc3nc(Nc4cc(CN5CCN(C(=O)CC(F)(F)F)CC5)ccn4)[nH]c3c2)c1F [Example 162.02, 1-(4-{[2-({6-[6-(dimethylamino)-5-fluoropyrimidin-4-yl]-1H-benzimidazol-2-yl}amino)pyridin-4-yl]methyl}piperazin-1-yl)-3,3,3-trifluoropropan-1-one] | 20 |  |
| COCc1cc(-c2ccc3nc(Nc4cc(C(C)N5CCN(C(=O)OC(C)(C)C)CC5)ccn4)[nH]c3c2)ncn1 (single isomer, unassigned) [Example 84.01, tert-butyl 4-{(1R or 1S)-1-[2-({6-[6-(methoxymethyl)pyrimidin-4-yl]-1H-benzimidazol-2-yl}amino)pyridin-4-yl]ethyl}piperazine-1-carboxylate] | 1.1 |  |

Results, then the compound that gave them:

| IC50 [1] [nM] | IC50 [2] [nM] | SMILES |
| --- | --- | --- |
| 6.5 |  | CCN(C)c1cc(-c2ccc3nc(Nc4cc(CN5CCN(C(=O)CC(F)(F)F)CC5)ccn4)[nH]c3c2)ncn1 [Example 148.02, 1-[4({2-[(6-{6-[ethyl(methyl)amino]pyrimidin-4-yl}-1H-benzimidazol-2-yl)amino]pyridin-4-yl}methyl)piperazin-1-yl]-3,3,3-trifluoropropan-1-one] |
| 85.8 |  | O=C(C1CCC1)N1CCN(Cc2ccnc(Nc3nc4ccc(-c5ccn(CC6CC6)c(=O)c5)cc4[nH]3)c2)CC1 [Example 44.03, 4-{2-[(4-{[4-(cyclobutylcarbonyl)piperazin-1-yl]methyl}pyridin-2-yl)amino]-1H-benzimidazol-6-yl}-1-(cyclopropylmethyl)pyridin-2(1H)-one] |
| 22.8 |  | COc1cncnc1-c1ccc2nc(Nc3cc(CN4CCN(S(=O)(=O)C5CCOCC5)CC4)ccn3)[nH]c2c1 [Example 35.01.14, 6-(5-methoxypyrimidin-4-yl)-N-(4-{[4-(tetrahydro-2H-pyran-4-ylsulfonyl)piperazin-1-yl]methyl}pyridin-2-yl)-1H-benzimidazol-2-amine] |
| 28.3 |  | COc1cnccc1-c1ccc2nc(Nc3cc(CN4CCN(C(=O)C(C)(C)OC)CC4)ccn3)[nH]c2c1 [Example 04.10, 2-methoxy-1-{4-[(2-{[6-(3-methoxypyridin-4-yl)-1H-benzimidazol-2-yl]amino}pyridin-4-yl)methyl]piperazin-1-yl}-2-methylpropan-1-one] |
| 190 |  | COc1ccc(-c2ccc3nc(Nc4cc(CN5CCN(C(=O)CC(F)(F)F)CC5)ccn4)[nH]c3c2)cn1 [Example 13.03, 3,3,3-trifluoro-1-{4-[(2-{[6-(6-methoxypyridin-3-yl)-1H-benzimidazol-2-yl]amino}pyridin-4-yl)methyl]piperazin-1-yl}propan-1-one] |
| 576 |  | CC(C)(C)OC(=O)N1CCN(Cc2ccnc(Nc3nc4ccc(-c5ncccn5)cc4[nH]3)c2)CC1 [Example 180.01, tert-butyl 4-[(2-{[6-(pyrimidin-2-yl)-1H-benzimidazol-2-yl]amino}pyridin-4-yl)methyl]piperazine-1-carboxylate] |
| 43.1 |  | Cc1noc(-c2ccc3nc(Nc4cc(C(C)N5CCN(C(=O)C6CC6)CC5)ccn4)[nH]c3c2)n1 (racemic) [Example 16.05.03, (rac)-cyclopropyl{4-[1-(2-{[6-(3-methyl-1,2,4-oxadiazol-5-yl)-1H-benzimidazol-2-yl]amino}pyridin-4-yl)ethyl]piperazin-1-yl}methanone] |
| 21 |  | Cc1cc(-c2ccc3nc(Nc4cc(CN5CCN(C(=O)C6CC6)CC5)ccn4)[nH]c3c2)cc(C#N)n1 [Example 136.03, 4-{2-[(4-{[4-(cyclopropylcarbonyl)piperazin-1-yl]methyl}pyridin-2-yl)amino]-1H-benzimidazol-6-yl}-6-methylpyridine-2-carbonitrile] |
| 201 |  | Cc1cncnc1-c1ccc2nc(Nc3cc(CN4CCN(C(=O)CC(F)(F)F)CC4)ccn3)[nH]c2c1 [Example 184.02, 3,3,3-trifluoro-1-{4-[(2-{[6-(5-methylpyrimidin-4-yl)-1H-benzimidazol-2-yl]amino}pyridin-4-yl)methyl]piperazin-1-yl}propan-1-one] |
| 9.2 |  | N#Cc1cc(-c2ccc3nc(Nc4cc(CN5CCN(C(=O)CC(F)(F)F)CC5)ccn4)[nH]c3c2)ncn1 [Example 77.01, 6-{2-[(4-{[4-(3,3,3-trifluoropropanoyl)piperazin-1-yl]methyl}pyridin-2-yl)amino]-1H-benzimidazol-6-yl}pyrimidine-4-carbonitrile] |
| 66.8 |  | O=C(C1CC1)N1CCN(Cc2ccnc(Nc3nc4ccc(-c5ccn(CC6CC6)c(=O)c5)cc4[nH]3)c2)CC1 [Example 44.02, 4-{2-[(4-{[4-(cyclopropylcarbonyl)piperazin-1-yl]methyl}pyridin-2-yl)amino]-1H-benzimidazol-6-yl}-1-(cyclopropylmethyl)pyridin-2(1H)-one] |
| 26.9 |  | CCN(CC)C(=O)N1CCN(Cc2ccnc(Nc3nc4ccc(-c5ncncc5OC)cc4[nH]3)c2)CC1 [Example 35.01.04, N,N-diethyl-4-[(2-{[6-(5-methoxypyrimidin-4-yl)-1H-benzimidazol-2-yl]amino}pyridin-4-yl)methyl]piperazine-1-carboxamide] |
| 1250 |  | COc1ccc(-c2ccc3nc(Nc4cc(CN5CCN(C(=O)OC(C)(C)C)CC5)ccn4)[nH]c3c2)cn1 [Example 13.01, tert-butyl 4-[(2-{[6-(6-methoxypyridin-3-yl)-1H-benzimidazol-2-yl]amino}pyridin-4-yl)methyl]piperazine-1-carboxylate] |
| 0.76 |  | CC(c1ccnc(Nc2nc3ccc(-c4cc(N5CC(F)(F)C5)ncn4)cc3[nH]2)c1)N1CCN(C(=O)C2CC2)CC1 (single isomer, unassigned) [Example 116.02, cyclopropyl(4-{(1R or 1S)-1-[2-({6-[6-(3,3-difluoroazetidin-1-yl)pyrimidin-4-yl]-1H-benzimidazol-2-yl}amino)pyridin-4-yl]ethyl}piperazin-1-yl)methanone] |

From patent publication US10894784B2, “Heteroarylbenzimidazole compounds” (BAYER PHARMA AKTIENGESELLSCHAFT, priority 2015, dated 2021)
